# Experimental data from BindingDB's records for doi:10.1016/j.bioorg.2012.01.003 (Institute For Advanced Studies In Basic Sciences (Iasbs), 2012).
# Target: Acetylcholinesterase (Electrophorus electricus, UniProt O42275)
# Test: Inhibition Assay
# Settings: pH 8; 25 °C
# Experimental: Inhibitory activity of synthesized alpha-unreidophosphonates were determined at 25 C by the colorimetric method of Ellman et al.
# Chain of Acetylcholinesterase (O42275 whole entry): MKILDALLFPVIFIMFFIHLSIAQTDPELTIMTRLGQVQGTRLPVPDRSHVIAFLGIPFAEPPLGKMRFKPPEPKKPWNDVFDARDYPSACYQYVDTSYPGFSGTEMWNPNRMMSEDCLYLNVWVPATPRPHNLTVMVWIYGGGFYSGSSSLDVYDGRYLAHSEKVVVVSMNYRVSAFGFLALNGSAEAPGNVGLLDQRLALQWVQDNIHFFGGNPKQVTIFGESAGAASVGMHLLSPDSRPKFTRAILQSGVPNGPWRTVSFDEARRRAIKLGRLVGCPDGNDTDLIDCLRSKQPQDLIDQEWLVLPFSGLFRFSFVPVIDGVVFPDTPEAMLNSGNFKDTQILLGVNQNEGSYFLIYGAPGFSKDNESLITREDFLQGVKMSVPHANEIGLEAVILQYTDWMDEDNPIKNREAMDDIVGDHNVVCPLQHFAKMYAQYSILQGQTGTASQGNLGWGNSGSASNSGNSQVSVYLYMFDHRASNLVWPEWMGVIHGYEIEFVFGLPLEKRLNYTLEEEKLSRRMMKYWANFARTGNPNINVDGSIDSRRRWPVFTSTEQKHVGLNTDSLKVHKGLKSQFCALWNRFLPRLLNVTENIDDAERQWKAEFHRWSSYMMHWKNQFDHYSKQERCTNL
row,Structure (SMILES),IC50 [µM]
1,"CCOP(=O)(OCC)C(c1ccccc1)N(C(=O)Nc1ccccc1)c1ccccc1 (stereo not drawn) [Alpha-ureidophosphonate, a]",172
2,"CCOP(=O)(OCC)C(c1ccc(C(C)C)cc1)N(C(=O)Nc1ccccc1)c1ccccc1 (stereo not drawn) [Alpha-ureidophosphonate, b]",230
3,"CCOP(=O)(OCC)C(c1ccc([N+](=O)[O-])cc1)N(C(=O)Nc1ccccc1)c1ccccc1 (stereo not drawn) [Alpha-ureidophosphonate, d]",811
4,"CCOP(=O)(OCC)C(c1ccc(C)cc1)N(C(=O)Nc1ccccc1)c1ccccc1 (stereo not drawn) [Alpha-ureidophosphonate, e]",441
5,"CCOP(=O)(OCC)C(c1ccc(F)cc1)N(C(=O)Nc1ccccc1)c1ccc(OC)cc1 (stereo not drawn) [Alpha-ureidophosphonate, g]",69.3
6,"CCOP(=O)(OCC)C(c1ccc(C)cc1)N(Cc1ccccc1)C(=O)Nc1ccccc1 (stereo not drawn) [Alpha-ureidophosphonate, i]",2.23
7,"CCOP(=O)(OCC)C(c1ccc(C)cc1)N(C(=O)Nc1ccccc1)C1CCCCC1 (stereo not drawn) [Alpha-ureidophosphonate, k]",148
